# Counter-ions that a name gives are not always drawn.
# Columns and labels:
# TGR5 (STC1 cell line) = target: T1, TGR5 (STC1 cell line) (Mus musculus, UniProt Q80SS6); assay: STC1 cAMP Agonist EC50 Determination
# T1 sequence (Q80SS6 1-329): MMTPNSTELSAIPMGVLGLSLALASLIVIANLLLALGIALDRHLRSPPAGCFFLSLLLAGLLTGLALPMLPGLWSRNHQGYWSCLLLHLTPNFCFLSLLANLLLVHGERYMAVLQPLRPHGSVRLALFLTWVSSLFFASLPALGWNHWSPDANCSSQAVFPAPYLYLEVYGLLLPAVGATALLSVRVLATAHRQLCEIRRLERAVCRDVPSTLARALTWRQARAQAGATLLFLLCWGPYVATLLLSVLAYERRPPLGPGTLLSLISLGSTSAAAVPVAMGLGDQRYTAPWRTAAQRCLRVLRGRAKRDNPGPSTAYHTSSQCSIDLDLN
# Description: Cell stocks were maintained and grown in a sub-confluent state using standard cell culture procedures. The day before the experiment, the cells were harvested with non-enzymatic cell dissociation buffer and resuspended in complete growth media at 4E5 c/ml. […] The seeded plates were incubated overnight at 37° C.
# On the day of the experiment, Assay Buffer containing: HBSS with Ca^2+and Mg^2+; 5 μM HEPES; 0.1% BSA; and, 0.5 μM IBMX was prepared. The growth medium was washed from the cell plates and replaced with 20 μL of Assay Buffer. […] The reaction was stopped by the addition of 20 μL 0.1% Formic Acid to all wells. Sixty minutes later 30 μL 3 M deuterated AMP was added to all wells (as a control for volume addition to the mass spec). Plates were mixed on a plate shaker for 1 min and centrifugated (5 min 3000 RPMs no brakes).
# Plates were run on a 4000 QTrap triple-quadrapole Mass spectrometer in positive ion mode coupled with a Biocius RapidFire 300is. […] Two ions (cAMP and deuterated AMP were measured using Multiple Reaction Monitoring (MRM) in positive ion mode and the area under the curve (AUC) was determined for each of the ions.
# The data from the Mass Spec/Rapid Plate AUC for cAMP and deuterated AMP were imported to an Excel worksheet. A Normalized signal (NS) was generated for each well=(cAMP AUC for the well/deut AMP AUC for the well)*average deut AMP AUC for the plate). nM cAMP was calculated for each well from the cAMP standard curves located on each plate by first calculating the slope and deriving the intercept (b).
# EC50 values were determined from a 4-point fit (Hill equation) of a single 11-point compound dosing.
# [1] = target: T2, TGR5 (NCI-H716 cell line) (Homo sapiens, UniProt Q8TDU6); assay: NCI-H716 cAMP Agonist EC50 Determination
# T2 sequence (Q8TDU6 1-330): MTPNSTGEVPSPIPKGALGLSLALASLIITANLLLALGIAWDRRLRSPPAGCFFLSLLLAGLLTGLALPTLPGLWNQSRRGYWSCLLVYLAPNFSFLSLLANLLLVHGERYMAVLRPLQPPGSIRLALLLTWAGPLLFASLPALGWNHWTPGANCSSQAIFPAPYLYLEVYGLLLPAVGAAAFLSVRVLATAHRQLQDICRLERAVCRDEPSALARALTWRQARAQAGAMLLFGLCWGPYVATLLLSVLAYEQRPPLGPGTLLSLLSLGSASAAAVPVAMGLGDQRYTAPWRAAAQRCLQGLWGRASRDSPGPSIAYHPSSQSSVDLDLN
# Description: Cells were cultured in suspension using RPM containing: 10% HI FBS, and 1× Penn/Strep and were cryostored (1E7 cells/vial in 5% DMSO).
# A Normalized signal (NS) is generated by the Envision for each well ((Read 1/Read 2)×10,000).
# The data from the Envision were imported to an Excel worksheet. nM cAMP is calculated for each well from the cAMP standard curves located on each plate by first calculating the slope and deriving the intercept (b).
# [formula] [formula] [formula] EC50 values were determined from a 4-point fit (Hill equation) of a single 11-point compound dosing.
Structure (SMILES),EC50 (TGR5 (STC1 cell line)) [nM],EC50 [1] [nM]
"COc1cc(C2CCCc3nc(SCc4c(F)cc(OCCN(C)C)cc4F)n(-c4ccc(F)cc4)c32)ccc1Cl (centres unmarked) [Example 24, 2-(4-((7-(4-chloro-3-methoxyphenyl)-1-(4-fluorophenyl)-4,5,6,7-tetrahydro-1H-benzo[d]imidazol-2-ylthio)methyl)-3,5-difluorophenoxy)-N,N-dimethylethanamine Trifluoromethylacetic acid salt]",3920,> 50000
"COc1ccc(C2(C)CCCc3nc(SCc4c(F)cc(OCCCl)cc4F)n(-c4ccc(F)cc4)c32)cc1OC (centres unmarked) [Example 107, 2-((4-(2-chloroethoxy)-2,6-difluorobenzyl)thio)-7-(3,4-dimethoxyphenyl)-1-(4-fluorophenyl)-7-methyl-4,5,6,7-tetrahydro-1H-benzo[d]imidazole]",320,1400
"COc1ccc(C2CCCc3nc(SCc4c(F)cc(OCCCl)cc4F)n(-c4ccc(F)cc4)c32)cc1OC (centres unmarked) [Example 67, 2-((4-(2-chloroethoxy)-2,6-difluorobenzyl)thio)-7-(3,4-dimethoxyphenyl)-1-(4-fluorophenyl)-4,5,6,7-tetrahydro-1H-benzo[d]imidazole]",500,8340
"COc1ccc(C2(C)CCCc3nc(SCc4c(F)cc(OCCN(C)C)cc4F)n(-c4ccc(F)cc4)c32)cc1OC (centres unmarked) [Example 108, 2-(4-(((7-(3,4-dimethoxyphenyl)-1-(4-fluorophenyl)-7-methyl-4,5,6,7-tetrahydro-1H-benzo[d]imidazol-2-yl)thio)methyl)-3,5-difluorophenoxy)-N,N-dimethylethanamine]",310,680
"COc1cc(C2CCCc3nc(SCc4c(F)cc(CCc5nnn[nH]5)cc4F)n(-c4ccc(F)cc4)c32)ccc1Cl (centres unmarked) [Example 49, 2-(4-(2-(1H-tetrazol-5-yl)ethyl)-2,6-difluorobenzylthio)-7-(4-chloro-3-methoxyphenyl)-1-(4-fluorophenyl)-4,5,6,7-tetrahydro-1H-benzo[d]imidazole trifluoroacetic acid]",940,> 50000
"COc1cc(C2(C)CCCc3nc(SCc4c(F)cc(-c5nnn[nH]5)cc4F)n(-c4ccc(F)cc4)c32)ccc1F (centres unmarked) [Example 121, 2-((2,6-difluoro-4-(1H-tetrazol-5-yl)benzyl)thio)-7-(4-fluoro-3-methoxyphenyl)-1-(4-fluorophenyl)-7-methyl-4,5,6,7-tetrahydro-1H-benzo[d]imidazole]",3110,> 50000
"COCCOCCOCCOCCNC(=O)c1cc(F)c(CSc2nc3c(n2-c2ccc(F)cc2)C(c2ccc(F)c(OC)c2)CCC3)c(F)c1 (centres unmarked) [Example 75, 3,5-difluoro-4-(((7-(4-fluoro-3-methoxyphenyl)-1-(4-fluorophenyl)-4,5,6,7-tetrahydro-1H-benzo[d]imidazol-2-yl)thio)methyl)-N-(2,5,8,11-tetraoxatridecan-13-yl)benzamide]",2760,> 50000
"COc1cc(C2CCCc3nc(SCc4c(F)cncc4Br)n(-c4ccc(F)cc4)c32)ccc1Cl (centres unmarked) [Example 56, 2-((3-bromo-5-fluoropyridin-4-yl)methylthio)-7-(4-chloro-3-methoxyphenyl)-1-(4-fluorophenyl)-4,5,6,7-tetrahydro-1H-benzo[d]imidazole trifluoroacetic acid]",130,> 50000
"COc1cc(C2CCCc3nc(SCc4c(Br)cncc4Br)n(-c4ccc(F)cc4)c32)ccc1Cl (centres unmarked) [Example 60, 2-((3,5-dibromopyridin-4-yl)methylthio)-7-(4-chloro-3-methoxyphenyl)-1-(4-fluorophenyl)-4,5,6,7-tetrahydro-1H-benzo[d]imidazole]",15500,> 50000
"COc1cc(C2(C)CCCc3nc(SCc4ncncc4Cl)n(-c4ccc(F)cc4)c32)ccc1Cl (centres unmarked) [Example 86, 7-(4-chloro-3-methoxyphenyl)-2-((5-chloropyrimidin-4-yl)methylthio)-1-(4-fluorophenyl)-7-methyl-4,5,6,7-tetrahydro-1H-benzo[d]imidazole trifluoroacetic acid]",2220,27100

# Source: patent US10077241B2 (Janssen Pharmaceutica NV, priority 2014, dated 2018)
